Where no end group is shown, it is not given here.
Legend:
surface nucleolin [1] = experiment: Binding of biotinylated Nucant to surface nucleolin on MDA-MB 231 cells (avidin recovery, immunoblotting); parameters: species or system human; conditions: data not presented
Experimental: (§1) Two days after seeding, subconfluent cells (about 5 × 10^6 cells/75 cm^2 flask) were incubated (45 min, 20°C) with 5 μM of HB-19/Btn. After washing extensively in PBS containing 1 mM EDTA (PBS-EDTA), nucleus-free cell extracts were prepared in lysis buffer E. The complex formed between cell-surface expressed nucleolin and HB-19/Btn was isolated by purification of the extracts using NeutrAvidin agarose (100 μl; Pierce Biotechnology) in PBS-EDTA. After 3 hours at 6°C, the avidin-agarose samples were washed extensively with PBS-EDTA. The purified surface nucleolin was eluted in the electrophoresis sample buffer containing SDS and analyzed by 10% SDS-polyacrylamide gel electrophoresis (SDS-PAGE). […] All cells investigated in this study (MDA-MB-231, MDA-MB-435, LNCaP, HeLa, SW480, SW620, and T29) expressed the cell surface nucleolin assayed by this procedure.
(§2) Figure 9 Nucant pseudopeptides bind surface nucleolin at a higher affinity compared to binding to nucleophosmin. A. Recovery of surface nucleolin and associated proteins by using biotinylated Nucant. […] Purified material was then analyzed by SDS-PAGE and stained with Brilliant Blue G-Colloidal Concentrate staining (panel Staining). Similar samples were also analyzed by immunoblotting using anti-nucleolin mAb D3 (panel anti-nucleolin) or anti-nucleophosmin mAb EP1848Y (panel anti-nucleophosmin)(Methods). […]

nucleophosmin = experiment: Binding of biotinylated Nucant to nucleophosmin on HuT 78 cells (avidin recovery, immunoblotting); parameters: species or system human; conditions: HuT 78 cells, 0, 1, 2, 4, 8 μM
Experimental: as §1, §2

HuT 78 cells = experiment: Cell entry and localization of biotinylated pseudopeptides, immunofluorescence; type: cell-based, human; conditions: HuT 78, 15 μM, 37°C, 5 hours, PFA/Triton fixation, anti-biotin immunofluorescence
Experimental: Figure 8 Nucant pseudopeptides are internalized into cells and accumulate in the cytoplasm without translocation to the nucleus. […] C. […] The nuclei stained with DAPI are shown on the right of each panel. Treatment of HuT 78 cells at 15 μM of biotinylated N3 or N7 leads to 25 and 40% cell death after 24 of culture, respectively.

HuT 78 = experiment: Cell death (trypan blue uptake); type: cell-based, human; conditions: HuT 78 cells, 15 μM, after 24 of culture
Experimental: Human breast (MDA-MB-231, MDA-MB-435 [37]), prostate (LNCaP, from American Type Culture Collection, ATCC, Rockville, MD), and cervical (HeLa) epithelial cancer cells were grown in DMEM-glutamax medium (Gibco Invitrogen, Cergy-Pontoise, France) containing GlutaMAX™, 4.5 g/l glucose and supplemented with 10% heat-inactivated (56°C for 30 min) fetal bovine serum (FBS; Hyclone, Thermo Fisher Scientific, Inc). Human SW480 cells are derived from a grade 3-4 colon carcinoma, while the highly metastatic counterpart SW620 is established from the lymph node of a person. Both SW480 and SW620 cells (obtained from Francis Raul, IRCAD) are highly tumorigenic in nude mice. They were cultured in D-MEM, 10% FCS. The murine melanoma TIII cell line was obtained from Armelle Prévost-Blondel. Murine T29 lymphoma cells, obtained from Philippe Kastner (CNRS, Strasbourg), have been established from Ik^L/L tumors from mice carrying a hypomorphic mutation (Ik^L/L) in the Ikaros gene encoding a transcription factor that regulates lymphocyte differentiation, and acts also as a tumor suppressor in T lymphocytes. The T29 cells were cultured in RPMI medium containing 25 mM Hepes pH 7.6, 1 mM sodium pyruvate, and 10% FCS. Human leukemia cell lines, Jurkat (acute T cell leukemia), HuT 78 (cutaneous T lymphocyte), RAJI (Burkitt lymphoma), and HL60 (promyelocytic leukemia) were cultured in RPMI-1640 medium (Gibco) containing GlutaMAX™, and supplemented with 10% heat-inactivated FBS as described before. The wild-type Chinese hamster ovary cell line (CHO K1) was purchased from American Type Culture Collection (ATCC; Rockville, MD). The CHO LRP1-null cell line (CHO-13-5-1) was kindly provided by D. Strickland [47]. They were cultured in Ham's F12K medium. All cells were cultured with 10% (v/v) heat inactivated (56°C, 30 min) fetal bovine serum (FBS) (Roche Molecular Biochemicals, Indianapolis, IN) and 50 international units/mL penicillin-streptomycin (Invitrogen). Cell death was monitored conveniently by uptake of the trypan blue dye due to plasma membrane permeability of dying and/or dead cells. […]

surface nucleolin [2] = experiment: Binding of biotinylated Nucant to surface nucleolin on HuT 78 cells (avidin recovery, immunoblotting); parameters: species or system human; conditions: HuT 78 cells, 0, 1, 2, 4, 8 μM
Experimental: as §1, §2

“biotinylated N7: biotinylated hexavalent N7 pseudopeptide (chain 1 KAKPGKAKPGKAKPG; chain 2 Lys-Pro-Arg; also: biotinylated (site not given here), hexavalent branched pseudopeptide, linkage not given here)” was tested, and the “concentration of maximum binding to surface nucleolin” value (surface nucleolin [1]) was 3 µM, the “concentration at which nucleophosmin binding occurs” value (nucleophosmin) was 8 µM and the “cell entry / intracellular localization” value (HuT 78 cells) was “most of the signal is located in the cytoplasm, with almost no signal in the nuclei”. For the same substance, the cell death (HuT 78) was 40% and the “concentration of maximum binding to surface nucleolin” value (surface nucleolin [2]) was 4 µM.

Source: publication PMC3199867, “Targeting surface nucleolin with multivalent HB-19 and related Nucant pseudopeptides results in distinct inhibitory mechanisms depending on the malignant tumor cell type” (BMC Cancer, 2011)
